Data taken from patent US20260097091A1, “ADMINISTRATION OF GLUTATHIONE TRISULFIDE TO AMELIORATE PERIPHERAL NEUROPATHY” (The General Hospital Corporation, priority 2022, published 2026).

Legend:
[1] = tissue distribution of orally administered ^34S-labeled GSSSG by LC-MS/MS; type: in vivo, mice; settings: 2 hours after oral ^34S-labelled GSSSG 50 mg/kg; mice
Experimental: To determine the tissue distribution of orally-administered GSSSG, ^34S-labelled GSSSG was administered by gavage to each of four mice. ^34S-labelled GSSSG was synthesized and provided by Kyowa Hakko Bio CO., LTD. Two hours after a single dose of ^34S-GSSSG, DRG, lumber spinal cord, brain, liver, and plasma were obtained and snap frozen for later analysis.
We examined whether administrated GSSSG via oral gavage reaches peripheral nervous system using liquid chromatography with tandem mass spectrometry (LC-MS/MS). Fifty mg/kg of ^34S-labeled GSSSG (in which the middle sulfur, that is a sulfane sulfur, was replaced to ^34S; G-^32S-^34S-^32S-G) was orally administered to mice. Two hours after administration, plasma and tissue from liver, brain, lumbar spinal cord, and lumbar DRG (L1 to L6) were collected and immediately frozen at −80° C. Tissues were homogenized with 5 mM of β-(4-hydroxyphenyl)ethyl iodoacetamide (HPE-IAM) (Santa Cruz, Cat No. SC-473766) and incubated for 20 minutes at 37° C. to promote HPE-IAM reaction that stabilizes persulfide residues. Proteins were removed by centrifugation at 15,000 g for 10 minutes at 4° C., and total protein concentration was measured by BCA assay. The supernatant was diluted by 0.1% formic acid for LC-MS/MS analysis. The amount of ^34S-labeled GSSSG was quantified in selective reaction monitoring (SRM) with precursor ion (647.14 m/z), product ion (389.1 m/z), and HCD (21 v) and normalized by protein concentration. The ratio of ^34S-labeled reactive sulfur species to endogenous (^32S) reactive sulfur species (GSSH, CysSSH, and CysSSSCys) were also calculated from their peak area measured by Dionex UltiMate 3000 RS UPLC-Orbitrap Exploris 480 mass spectrometer (Thermo Scientific Scientific, Waltham, MA, USA). In brief, samples were subjected to the UPLC system with a Hypersil Gold C-18 (100×2.1 mm, 3.0 μm, Thermo Fisher Scientific) column and they were eluted by using a linear methanol gradient of the mobile phase (0-90%, 15 minutes) in the presence of 0.1% formic acid at a flow rate of 0.2 ml/minutes at 40 degrees. The raw data were obtained by Compound Discoverer software 3.3. Molecular weight of reactive sulfur species combined with HPE-IAM were reported in previous studies.

[2] = tested on: mouse model of PIPN; test: von Frey test of mechanical allodynia in mouse model of paclitaxel-induced peripheral neuropathy; type: in vivo, mice (C57BL/6J)
Source text: All animal protocols were approved by the Massachusetts General Hospital Institutional Animal Care and Use Committee. Animals were cared for in accordance with the guidelines established by the NIH and the International Association for the Study of Pain [16]. Male C57BL/6J mice (6-7 weeks old) were purchased from the Jackson Laboratory (Bar Harbor, ME, USA). The mice were housed in a 12-hour shift light-control environment from 7 am to […] with ad libitum access to food and water in our animal facility until the time of experiments.
Paclitaxel (Sigma-Aldrich) was dissolved with ethanol and cremophor (1:1) and diluted with normal saline (1:4). Peripheral neuropathy was induced in mice by intraperitoneal (i.p.) administration of 4 mg/kg paclitaxel every other day for a total of 4 injections (cumulative dose of 16 mg/kg), according to a previously described protocol. A stable, crystallized form of GSSSG was produced and provided by Kyowa Hakko Bio CO., LTD. GSSSG was pulverized and mixed in 0.5% methylcellulose. […] The dose of GSSSG was determined based on pilot studies. […]
Mechanical withdrawal thresholds were measured by the manual von Frey filament test to assess mechanical allodynia. […] The 50% threshold of a paw withdrawal response was calculated by the Up-down Reader based on the up and down method. […]

[3] = tested on: primary cortical neurons; test: axonal degeneration in primary cortical neurons; type: cell-based, mice; settings: 10 μM of GSSSG
[4] = tested on: MDA-MB-231 human breast cancer cells; test: MDA-MB-231 cell viability by LDH Cytotoxicity Detection assay; type: cell-based; settings: 24 hours incubation
Experimental: To examine whether co-administration of GSSSG affects anti-tumor effects of paclitaxel, we conducted experiments using MDA-MB-231, a human breast cancer cell line (HTB-26, ATCC). Cells were cultured in the medium of 90% RPMI1640 (Corning, Cat No. 10-040-CV), 10% FBS, and 1% penicillin/streptomycin. After being seeded into a 96-well plate at the density of 20,000/well and cultured overnight, they were exposed to different concentrations of paclitaxel (0.125 μM, 0.25 μM, 0.5 μM, 1 μM, and 2 μM) and incubated for 24 hours. Cell viability was evaluated by LDH Cytotoxicity Detection Kit (Roche, Cat No. 11644793001). Briefly, a plate was centrifuged at 250×g for 10 minutes. Cells were washed with PBS and incubated with 100 μl of 1% Triton X-100 at 37° C. for 30 minutes. After mixing with assay enzyme for 30 minutes at 25° C., absorbance was measured at wavelength 492 nm to determine cell viability. Inhibitory effects of paclitaxel were calculated by half-maximal inhibitory concentration (IC50). We utilized the IC50 of paclitaxel obtained with LDH assay to examine the anti-tumor effect of paclitaxel and co-administration of GSSSG using the trypan blue exclusion assay. […] MDA-MB-231 cells were seeded 5.6×10,000/well in a 6-well plate and incubated overnight. […] After being stripped by 0.25% trypsin, live cells were counted under 0.04% trypan blue. Five wells were evaluated per group.

plasma level of GSSSG [1] [nM]	Structure (SMILES)	mechanical allodynia (von Frey test) ([2]; GSSSG 50 mg/kg/day oral for 28 days in paclitaxel-treated mice, vs paclitaxel alone)	axonal degeneration in primary cortical neurons [3]	IC50 [4] [µM]	paw withdrawal threshold (von Frey test) ([2]; paclitaxel 4 mg/kg i.p. every other day, 4 injections, week 1 through week 4, vs control mice)
58	N[C@@H](CCC(=O)N[C@@H](CSSSC[C@H](NC(=O)CC[C@H](N)C(=O)O)C(=O)NCC(=O)O)C(=O)NCC(=O)O)C(=O)O [GSSSG, glutathione trisulfide]	mitigated mechanical allodynia over the experimental period	prevented axonal degeneration		
	CC(=O)O[C@H]1C(=O)[C@@]2(C)[C@H]([C@H](OC(=O)c3ccccc3)[C@]3(O)C[C@H](OC(=O)[C@H](O)[C@@H](NC(=O)c4ccccc4)c4ccccc4)C(C)=C1C3(C)C)[C@]1(OC(C)=O)CO[C@@H]1C[C@@H]2O [paclitaxel, Paclitaxel, reference compound]			1.66	significantly lower paw withdrawal threshold than control mice
